Measured values published in patent US8648068B2, “Heterocycloalkyl-containing thienopyrimidines for pharmaceutical compositions” (Boehringer Ingelheim International GmbH, priority 2010, dated 2014).
Structures can show the parent of a compound that is named as a salt.

These compounds were tested against T1, human Mnk2a (Homo sapiens, UniProt Q9HBH9) (assay: Mnk2a in vitro kinase assay (indirect fluorescence polarization)). Settings: GST-Mnk2a pre-activated with ERK2, 20 μM ATP, 30 μM substrate peptide; read-out: MNK2 IC50.
T1 construct: made in house; host or cells: E. coli BL21 (vector pGEX-4T1)
Format: biochemical
Summary of the method: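 Indirect competitive fluorescence polarization: kinase-generated phospho-product displaces a fluorophore-labelled phospho-peptide from a phospho-specific antibody. Enzyme is N-terminal GST-Mnk2a from E. coli, activated with pre-activated ERK2 and 50 μM ATP; substrate is an amidated 12-mer peptide around eIF4E Ser209.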

T1 sequence (Q9HBH9 whole entry): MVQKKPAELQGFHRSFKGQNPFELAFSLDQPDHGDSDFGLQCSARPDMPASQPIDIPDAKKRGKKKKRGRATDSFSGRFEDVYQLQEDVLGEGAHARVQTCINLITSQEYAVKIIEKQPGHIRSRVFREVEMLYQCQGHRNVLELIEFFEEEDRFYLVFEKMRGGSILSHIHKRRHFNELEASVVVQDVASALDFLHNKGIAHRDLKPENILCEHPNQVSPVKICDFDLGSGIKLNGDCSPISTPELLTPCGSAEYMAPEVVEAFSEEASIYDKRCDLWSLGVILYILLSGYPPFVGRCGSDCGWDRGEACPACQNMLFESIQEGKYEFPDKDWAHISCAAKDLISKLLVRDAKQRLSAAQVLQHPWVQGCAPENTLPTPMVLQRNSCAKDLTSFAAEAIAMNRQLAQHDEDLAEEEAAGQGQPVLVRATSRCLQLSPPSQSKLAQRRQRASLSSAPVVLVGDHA

`Cc1c(C(=O)NCCn2cccn2)sc2ncnc(Nc3ccc(F)cc3OC3CCOCC3)c12` [Example 183] and `Cc1c(C(=O)NCCn2ccnc2)sc2ncnc(Nc3ccc(F)cc3OC3CCOCC3)c12` [Example 151] are within 1.5-fold of each other in IC50: 0.051 µM for the first, 0.057 µM for the second.

`Cc1c(C(=O)NCCC[S+](C)[O-])sc2ncnc(Nc3cccnc3OC3CCOCC3)c12` (centres unmarked) [Compound 282, 5-Methyl-4-[2-(tetrahydro-pyran-4-yloxy)-pyridin-3-ylamino]-thieno[2,3-d]pyrimidine-6-carboxylic acid (3-methanesulfinyl-propyl)-amide] and `Cc1c(C(=O)NCC[S+](C)[O-])sc2ncnc(Nc3cccnc3OC3CCOCC3)c12` (centres unmarked) [Example 280] are within 1.5-fold of each other in IC50: 0.053 µM for the first, 0.04 µM for the second.

`Cc1c(C(=O)NC2(CO)CCCC2)sc2ncnc(Nc3ccc(F)cc3OC3CCOCC3)c12` [Example 225] and `Cc1c(C(=O)NCC2(O)CCCC2)sc2ncnc(Nc3ccc(F)cc3OC3CCOCC3)c12` [Example 203] are within 1.5-fold of each other in IC50: 0.053 µM for the first, 0.051 µM for the second.

Compared with `Cc1c(C(N)=O)sc2ncnc(Nc3ccc(F)cc3O[C@@H]3CCCN(C)C3)c12` [Example 76, 4-[4-Fluoro-2-((R)-1-methyl-piperidin-3-yloxy)-phenylamino]-5-methyl-thieno[2,3-d]pyrimidine-6-carboxylic acid amide], `Cc1c(C(N)=O)sc2ncnc(Nc3ccc(F)cc3O[C@H]3CCCN(CCO)C3)c12` [Example 6, (S)-4-(4-fluoro-2-(1-(2-hydroxyethyl)piperidin-3-yloxy)phenylamino)-5-methylthieno[2,3-d]pyrimidine-6-carboxamide] is 2.8-fold higher in IC50: 0.043 µM for the first, 0.12 µM for the second. The first is the more potent here.

`CCN(CC)CC(O)CNC(=O)c1sc2ncnc(Nc3ccc(F)cc3OC3CCOCC3)c2c1C` (centres unmarked) [Example 248] and `Cc1c(C(=O)NCC(O)CN(C)C)sc2ncnc(Nc3ccc(F)cc3OC3CCOCC3)c12` (centres unmarked) [Example 256, 4-[4-Fluoro-2-(tetrahydro-pyran-4-yloxy)-phenylamino]-5-methyl-thieno[2,3-d]pyrimidine-6-carboxylic acid (3-dimethylamino-2-hydroxy-propyl)-amide-hydrochloride] are within 1.5-fold of each other in IC50: 0.041 µM for the first, 0.037 µM for the second.

Compared with `Cc1c(C(=O)NC2CC2)sc2ncnc(Nc3ccc(F)cc3O[C@H]3CCOC3)c12` [Example 112], `Cc1c(C(N)=O)sc2ncnc(Nc3ccc(F)cc3O[C@H]3CCOC3)c12` [Example 109] is 2.3-fold lower in IC50: 0.021 µM for the first, 0.009 µM for the second.

First: Cc1c(C(=O)NCc2cccnc2)sc2ncnc(Nc3ccc(F)cc3OC3CCOCC3)c12 [Example 213]
Second: Cc1c(C(=O)NCCc2ccccn2)sc2ncnc(Nc3ccc(F)cc3OC3CCOCC3)c12 [Example 206]
The IC50 of the first is 2-fold lower: 0.021 µM for the first, 0.043 µM for the second.

First: Cc1c(C(=O)NCC2CNC(=O)C2)sc2ncnc(Nc3ccc(F)cc3OC3CCOCC3)c12 (centres unmarked) [Example 199]
Second: Cc1c(C(=O)NCC2CNCCO2)sc2ncnc(Nc3ccc(F)cc3OC3CCOCC3)c12 (centres unmarked) [Example 127]
The IC50 of the first is 1.8-fold higher: 0.03 µM for the first, 0.017 µM for the second. The second is the more potent here.

`Cc1c(C(N)=O)sc2ncnc(Nc3ccc(F)cc3OC3CCN(S(C)(=O)=O)C3)c12` (centres unmarked) [Example 89, 4-[4-Fluoro-2-(1-methanesulfonyl-pyrrolidin-3-yloxy)-phenylamino]-5-methyl-thieno[2,3-d]pyrimidine-6-carboxylic acid amide] and `Cc1c(C(N)=O)sc2ncnc(Nc3ccc(F)cc3O[C@H]3CCCN(S(C)(=O)=O)C3)c12` [Example 10, (S)-4-(4-fluoro-2-(1-(methylsulfonyl)piperidin-3-yloxy)phenylamino)-5-methylthieno[2,3-d]pyrimidine-6-carboxamide] are within 1.5-fold of each other in IC50: 0.008 µM for the first, 0.01 µM for the second.

First: Cc1c(C(=O)NCC2CCCCC2O)sc2ncnc(Nc3ccc(F)cc3OC3CCCNC3)c12 (centres unmarked) [Example 40]
Second: Cc1c(C(=O)NCC2CCOCC2)sc2ncnc(Nc3ccc(F)cc3OC3CCCNC3)c12 (centres unmarked) [Example 32]
The IC50 of the first is 1.6-fold lower: 0.035 µM for the first, 0.055 µM for the second.

Compared with `Cc1c(C(N)=O)sc2ncnc(Nc3ccc(F)cc3O[C@@H]3CCCN(Cc4ncon4)C3)c12` [Example 72, 4-[4-Fluoro-2-((R)-1-[1,2,4]oxadiazol-3-ylmethyl-piperidin-3-yloxy)-phenylamino]-5-methyl-thieno[2,3-d]pyrimidine-6-carboxylic acid amide], `Cc1c(C(N)=O)sc2ncnc(Nc3ccc(F)cc3O[C@@H]3CCCN(CC(F)(F)F)C3)c12` [Example 73] is 1.8-fold lower in IC50: 0.009 µM for the first, 0.005 µM for the second.

First: Cc1c(C(=O)NCC#N)sc2ncnc(Nc3ccc(F)cc3OC3CCOCC3)c12 [Example 164]
Second: Cc1c(C(=O)NCC(C)O)sc2ncnc(Nc3ccc(F)cc3OC3CCOCC3)c12 (centres unmarked) [Example 158]
The IC50 of the first is 1.6-fold lower: 0.027 µM for the first, 0.042 µM for the second.

`Cc1c(C(=O)N[C@H]2CCCC[C@@H]2O)sc2ncnc(Nc3ccc(F)cc3OC3CCOCC3)c12` [Example 243] and `Cc1c(C(=O)N[C@H]2C[C@H]2N)sc2ncnc(Nc3ccc(F)cc3OC3CCOCC3)c12` [Example 136] are within 1.5-fold of each other in IC50: 0.049 µM for the first, 0.071 µM for the second.

Compared with `Cc1c(C(N)=O)sc2ncnc(Nc3ccc(F)cc3O[C@@H]3CCCN(CCC(F)(F)F)C3)c12` [Example 79], `Cc1c(C(N)=O)sc2ncnc(Nc3ccc(F)cc3O[C@@H]3CCCN(S(C)(=O)=O)C3)c12` [Example 84, 4-[4-Fluoro-2-((R)-1-methanesulfonyl-piperidin-3-yloxy)-phenylamino]-5-methyl-thieno[2,3-d]pyrimidine-6-carboxylic acid amide] is 6-fold lower in IC50: 0.012 µM for the first, 0.002 µM for the second. The second is the more potent here.

Compared with `Cc1c(C(=O)N(C)CC2CCCCC2)sc2ncnc(Nc3ccc(F)cc3OC3CCCNC3)c12` (centres unmarked) [Example 36], `Cc1c(C(=O)NC2CC2)sc2ncnc(Nc3ccc(F)cc3O[C@H]3CCCNC3)c12` [Example 17] is 26-fold lower in IC50: 0.79 µM for the first, 0.03 µM for the second. The second is the more potent here.

First: COCCNC(=O)c1sc2ncnc(Nc3ccc(F)cc3O[C@H]3CCCNC3)c2c1C [Example 13]
Second: Cc1c(C(=O)NCCO)sc2ncnc(Nc3ccc(F)cc3O[C@H]3CCCNC3)c12 [Example 15]
The IC50 of the first is 1.9-fold higher: 0.059 µM for the first, 0.031 µM for the second. The second is the more potent here.

`Cc1c(C(=O)NCc2ccc(O)cc2)sc2ncnc(Nc3ccc(F)cc3OC3CCCNC3)c12` (centres unmarked) [Example 34] and `Cc1c(C(=O)NCc2cccs2)sc2ncnc(Nc3ccc(F)cc3OC3CCCNC3)c12` (centres unmarked) [Example 30] are within 1.5-fold of each other in IC50: 0.035 µM for the first, 0.034 µM for the second.

Compared with `Cc1c(C(=O)NCCCN2CC[C@@H](O)C2)sc2ncnc(Nc3ccc(F)cc3OC3CCOCC3)c12` [Example 249], `COC[C@@H]1CCCN1CCCNC(=O)c1sc2ncnc(Nc3ccc(F)cc3OC3CCOCC3)c2c1C` [Example 122] is 2.3-fold higher in IC50: 0.021 µM for the first, 0.048 µM for the second. The first is the more potent here.

Going from `Cc1c(C(=O)NCc2cc(F)ccc2F)sc2ncnc(Nc3ccc(F)cc3OC3CCCNC3)c12` (centres unmarked) [Example 57] to `Cc1c(C(=O)NCC(C)(C)C)sc2ncnc(Nc3ccc(F)cc3OC3CCCNC3)c12` (centres unmarked) [Example 21], the IC50 rises from 0.043 µM to 0.076 µM (1.8-fold).

First: CONC(=O)c1sc2ncnc(Nc3ccc(F)cc3OC3CCN(S(C)(=O)=O)C3)c2c1C (centres unmarked) [Example 92]
Second: Cc1c(C(=O)NCCO)sc2ncnc(Nc3ccc(F)cc3O[C@@H]3CCCN(S(C)(=O)=O)C3)c12 [Example 86]
The IC50 of the first is 7.5-fold higher: 0.045 µM for the first, 0.006 µM for the second.

`Cc1ccc(Nc2ncnc3sc(C(N)=O)c(C)c23)c(O[C@H]2CCCNC2)c1` [Example 68, 4-[4-Methyl-2-((S)-piperidin-3-yloxy)-phenylamino]-5-methyl-thieno[2,3-d]pyrimidine-6-carboxylic acid amide] and `Cc1c(C(N)=O)sc2ncnc(Nc3ccc(F)cc3O[C@@H]3CCCNC3)c12` [Example 71, 4-[4-Fluoro-2-((R)-piperidin-3-yloxy)-phenylamino]-5-methyl-thieno[2,3-d]pyrimidine-6-carboxylic acid amide] are within 1.5-fold of each other in IC50: 0.08 µM for the first, 0.089 µM for the second.

First: Cc1c(C(N)=O)sc2ncnc(Nc3cccnc3O[C@H]3CCCNC3)c12 [Example 69, 5-Methyl-4-[2-((S)-piperidin-3-yloxy)-pyridin-3-ylamino]thieno[2,3-d]pyrimidine-6-carboxylic acid amide]
Second: Cc1c(C(N)=O)sc2ncnc(Nc3cccnc3O[C@@H]3CCOC3)c12 [Example 267, 5-Methyl-4-{2-[(R)-(tetrahydro-furan-3-yl)oxy]-pyridin-3-ylamino}-thieno[2,3-d]pyrimidine-6-carboxylic acid amide]
The IC50 of the first is 1.9-fold lower: 0.019 µM for the first, 0.036 µM for the second.

`Cc1c(C(=O)NCC(N)=O)sc2ncnc(Nc3ccc(F)cc3OC3CCOCC3)c12` [Example 128] and `Cc1c(C(=O)NCCCCO)sc2ncnc(Nc3ccc(F)cc3OC3CCOCC3)c12` [Example 155] are within 1.5-fold of each other in IC50: 0.041 µM for the first, 0.038 µM for the second.

`Cc1c(C(=O)NCC(F)(F)F)sc2ncnc(Nc3ccc(F)cc3OC3CCOCC3)c12` [Example 159] and `CCOCCNC(=O)c1sc2ncnc(Nc3ccc(F)cc3OC3CCOCC3)c2c1C` [Example 160] are within 1.5-fold of each other in IC50: 0.044 µM for the first, 0.059 µM for the second.

`Cc1c(C(=O)NCCCN(C)C)sc2ncnc(Nc3ccc(F)cc3O[C@@H]3CCOC3)c12` [Example 103, 4-{4-Fluoro-2-[(R)-(tetrahydro-furan-3-yl)oxy]-phenylamino}-5-methyl-thieno[2,3-d]pyrimidine-6-carboxylic acid (3-dimethylamino-propyl)-amide] and `Cc1c(C(=O)NCCCN2CCCC2)sc2ncnc(Nc3ccc(F)cc3O[C@H]3CCOC3)c12` [Example 111] are within 1.5-fold of each other in IC50: 0.026 µM for the first, 0.022 µM for the second.

Going from `CC(=O)NCCCNC(=O)c1sc2ncnc(Nc3ccc(F)cc3OC3CCOCC3)c2c1C` [Example 130] to `Cc1c(C(=O)NS(C)(=O)=O)sc2ncnc(Nc3ccc(F)cc3O[C@@H]3CCOC3)c12` [Example 101, N-(4-{4-Fluoro-2-[(R)-(tetrahydro-furan-3-yl)oxy]-phenylamino}-5-methyl-thieno[2,3-d]pyrimidine-6-carbonyl)-methanesulfonamide], the IC50 falls from 0.036 µM to 0.011 µM (3.3-fold).

First: Cc1c(C(N)=O)sc2ncnc(Nc3cccnc3O[C@H]3CCOC3)c12 [Example 269, 5-Methyl-4-{2-[(S)-(tetrahydro-furan-3-yl)oxy]-pyridin-3-ylamino}-thieno[2,3-d]pyrimidine-6-carboxylic acid amide]
Second: Cc1c(C(=O)NCC2CN(C)CCO2)sc2ncnc(Nc3ccc(F)cc3O[C@H]3CCOC3)c12 (some centres unmarked) [Example 110]
The IC50 of the first is 1.6-fold higher: 0.034 µM for the first, 0.021 µM for the second.

`Cc1c(C(=O)NCC(C)(C)O)sc2ncnc(Nc3ccc(F)cc3OC3CCCNC3)c12` (centres unmarked) [Example 49] and `CCN1CCC[C@@H]1CNC(=O)c1sc2ncnc(Nc3ccc(F)cc3OC3CCCNC3)c2c1C` (some centres unmarked) [Example 52] are within 1.5-fold of each other in IC50: 0.099 µM for the first, 0.13 µM for the second.
